We go through 1 compound from patent US20110281911A1, “NOVEL FORMS OF EPERISONE” (Bionevia Pharmaceuticals, Inc., priority 2008, published 2011).

Counter-ions that a name gives are not always drawn.

The nature of the series: Solubility in acetonitrile, calculated based on the total solvent used to give a solution. It is filed as physicochemical. The conditions noted are these: organic solvent or mixture, thermodynamic from solid.

Broadly, the solubility is how much of the substance goes into solution per volume. In the case of `CCc1ccc(C(=O)C(C)CN2CCCCC2)cc1` (single isomer, unassigned) [substantially enantiopure crystalline eperisone hydrochloride, eperisone hydrochloride], the solubility was above 11 mg/mL.
